Assay: Ability to induce shape change (polarization) in human polymorphonuclear leukocytes (PMN)

Compound | EC50 [µM]
H-YSFKDMQLGR-OH [Tyr-Ser-Phe-LyS-Asp-Met-Glu-Leu-Gly-Arg] | 37
CC(C)C[C@H](NC(=O)[C@@H]1CCCN1C(=O)[C@H](C)NC(=O)[C@H](CC(=O)O)NC(=O)[C@H](CCCCN)NC(=O)[C@H](Cc1ccccc1)NC(=O)[C@H](CO)NC(=O)[C@@H](N)Cc1ccc(O)cc1)C(=O)NCC(=O)N[C@@H](CCCNC(=N)N)C(=O)O | 15.8
H-YSFKGLLLGR-OH | 0.3
CSCC[C@H](NC(=O)[C@H](CC(=O)O)NC(=O)[C@H](CCCCN)NC(=O)[C@H](Cc1ccccc1)NC(=O)[C@H](CO)NC(=O)[C@@H](N)Cc1ccc(O)cc1)C(=O)N1CCC[C@H]1C(=O)N[C@@H](CC(C)C)C(=O)NCC(=O)N[C@@H](CCCNC(=N)N)C(=O)O | 5
H-YSFKDMQPGR-OH | 22
